Results on 25 compounds are retold here after patent US10435399B2, “HDAC6 inhibitory heterocyclic compound” (TAKEDA PHARMACEUTICAL COMPANY LIMITED, priority 2017, dated 2019).

For this assay, the target named is T1, HDAC6 enzyme (Homo sapiens, UniProt Q9UBN7).
T1 construct: transducing full length HDAC6 gene into Sf-9 insect cells; GST; purchased SignalChem; host or cells: Sf-9 insect cells
T1 sequence (Q9UBN7 1-1215): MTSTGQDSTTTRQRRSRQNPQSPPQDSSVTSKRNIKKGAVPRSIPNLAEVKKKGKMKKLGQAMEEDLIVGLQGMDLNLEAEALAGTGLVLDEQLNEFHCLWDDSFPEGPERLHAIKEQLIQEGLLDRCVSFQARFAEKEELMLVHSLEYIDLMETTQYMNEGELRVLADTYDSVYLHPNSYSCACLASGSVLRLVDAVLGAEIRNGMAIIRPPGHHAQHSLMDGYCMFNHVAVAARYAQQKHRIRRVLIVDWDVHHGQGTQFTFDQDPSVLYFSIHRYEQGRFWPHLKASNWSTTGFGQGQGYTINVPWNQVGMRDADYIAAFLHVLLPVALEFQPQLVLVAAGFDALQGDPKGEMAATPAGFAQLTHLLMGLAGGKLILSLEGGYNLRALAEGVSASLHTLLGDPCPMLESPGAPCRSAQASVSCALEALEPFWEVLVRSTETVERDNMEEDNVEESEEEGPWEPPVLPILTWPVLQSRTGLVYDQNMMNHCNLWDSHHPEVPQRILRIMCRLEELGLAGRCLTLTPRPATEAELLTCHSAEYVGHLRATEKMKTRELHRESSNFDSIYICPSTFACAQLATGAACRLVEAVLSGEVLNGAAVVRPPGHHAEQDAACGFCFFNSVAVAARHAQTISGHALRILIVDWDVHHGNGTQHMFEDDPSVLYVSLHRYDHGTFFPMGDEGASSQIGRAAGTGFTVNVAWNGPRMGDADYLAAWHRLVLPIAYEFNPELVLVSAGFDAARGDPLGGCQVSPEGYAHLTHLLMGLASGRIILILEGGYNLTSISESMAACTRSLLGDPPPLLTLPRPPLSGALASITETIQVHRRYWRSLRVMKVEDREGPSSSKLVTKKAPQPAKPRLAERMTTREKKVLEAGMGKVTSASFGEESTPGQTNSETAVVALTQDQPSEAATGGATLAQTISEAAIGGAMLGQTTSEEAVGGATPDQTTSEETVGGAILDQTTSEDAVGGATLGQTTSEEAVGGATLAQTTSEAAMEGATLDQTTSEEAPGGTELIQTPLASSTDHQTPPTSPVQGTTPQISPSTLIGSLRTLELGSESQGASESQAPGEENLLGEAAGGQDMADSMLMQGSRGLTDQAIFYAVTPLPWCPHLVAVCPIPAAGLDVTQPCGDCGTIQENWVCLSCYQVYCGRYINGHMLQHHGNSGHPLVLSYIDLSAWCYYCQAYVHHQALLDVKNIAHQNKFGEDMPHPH
Put plainly: HDAC6 enzyme inhibitory activity (HDAC-Glo I/II Assay kit). In kind it is biochemical. Conditions: 10 μM; wells without enzyme = 100% inhibition; read-out: HDAC6 inhibitory rate (%) (10 μM). In a few lines:
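Luminescent HDAC-Glo I/II readout after 20 min room-temperature reaction with substrate-developer, following 60 min compound–enzyme preincubation. Enzyme: full-length HDAC6 from Sf-9 cells, GST-purified; buffer 24 mM Tris-HCl pH 7.5, 0.01% Tween-20, glutathione, salts. Wells lacking enzyme define 100% inhibition.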
`C[C@H](c1ccc(F)cc1)N1Cc2ncc(-c3nnc(C(F)F)o3)cc2C1=O` [Example 140, 3-(5-(difluoromethyl)-1,3,4-oxadiazol-2-yl)-6-((1R)-1-(4-fluorophenyl)ethyl)-6,7-dihydro-5H-pyrrolo[3,4-b]pyridin-5-one]: the inhibition at 10 µM is 100%.

On to `C[C@@H](c1ccc(F)cc1)N1Cc2ncc(-c3nnc(C(F)F)o3)cc2C1=O` [Example 141, 3-(5-(difluoromethyl)-1,3,4-oxadiazol-2-yl)-6-((1S)-1-(4-fluorophenyl)ethyl)-6,7-dihydro-5H-pyrrolo[3,4-b]pyridin-5-one], for which the inhibition at 10 µM was determined as 100%.

For the compound `O=C(N[C@@H]1CCCC[C@H]1N1C(=O)c2ccc(-c3nnc(C(F)F)o3)cc2C1=O)OCc1ccccc1` [Example 142, benzyl ((1R,2R)-2-(5-(5-(difluoromethyl)-1,3,4-oxadiazol-2-yl)-1,3-dioxo-1,3-dihydro-2H-isoindol-2-yl)cyclohexyl)carbamate], the inhibition at 10 µM was 99%.

With `O=C1c2cc(-c3nnc(C(F)F)o3)ccc2CN1Cc1ncccc1Cl` [Example 143, 2-((3-chloropyridin-2-yl)methyl)-6-(5-(difluoromethyl)-1,3,4-oxadiazol-2-yl)isoindolin-1-one], the inhibition at 10 µM was 95%.

With `O=C1c2cc(-c3nnc(C(F)F)o3)ccc2CN1Cc1cncc(C(F)(F)F)c1` [Example 144, 6-(5-(difluoromethyl)-1,3,4-oxadiazol-2-yl)-2-((5-(trifluoromethyl)pyridin-3-yl)methyl)isoindolin-1-one], the inhibition at 10 µM was determined as 97%.

As for `CS(=O)(=O)c1cccc(CN2Cc3ccc(-c4nnc(C(F)F)o4)cc3C2=O)c1` [Example 145, 6-(5-(difluoromethyl)-1,3,4-oxadiazol-2-yl)-2-(3-(methylsulfonyl)benzyl)isoindolin-1-one], the inhibition at 10 µM was 100%.

In the case of `O=C1c2cc(-c3nnc(C(F)F)o3)ccc2CN1Cc1cc(C2CC2)on1` [Example 146, 2-((5-cyclopropyl-1,2-oxazol-3-yl)methyl)-6-(5-(difluoromethyl)-1,3,4-oxadiazol-2-yl)isoindolin-1-one], the inhibition at 10 µM is 94%.

In the case of `O=C1c2cc(-c3nnc(C(F)F)o3)ccc2CN1Cc1ncc(F)cc1F` [Example 147, 6-(5-(difluoromethyl)-1,3,4-oxadiazol-2-yl)-2-((3,5-difluoropyridin-2-yl)methyl)isoindolin-1-one], the inhibition at 10 µM is 93%.

`CC(C)(C)OC(=O)N[C@@H]1CCCC[C@H]1N1Cc2c(F)cc(-c3nnc(C(F)F)o3)cc2C1=O` [Example 148, tert-butyl ((1R,2R)-2-(6-(5-(difluoromethyl)-1,3,4-oxadiazol-2-yl)-4-fluoro-1-oxo-1,3-dihydro-2H-isoindol-2-yl)cyclohexyl)carbamate]: the inhibition at 10 µM was determined as 99%.

For `O=C1c2cc(-c3nnc(C(F)F)o3)cnc2CN1[C@@H]1CCCC[C@H]1NC(=O)C1(C(F)(F)F)CC1` [Example 149, N-((1R,2R)-2-(3-(5-(difluoromethyl)-1,3,4-oxadiazol-2-yl)-5-oxo-5,7-dihydro-6H-pyrrolo[3,4-b]pyridin-6-yl)cyclohexyl)-1-(trifluoromethyl)cyclopropanecarboxamide], the inhibition at 10 µM worked out at 102%.

As to `O=C(N[C@@H]1CCCC[C@H]1N1Cc2ncc(-c3nnc(C(F)F)o3)cc2C1=O)OC1CC1` [Example 150, cyclopropyl ((1R,2R)-2-(3-(5-(difluoromethyl)-1,3,4-oxadiazol-2-yl)-5-oxo-5,7-dihydro-6H-pyrrolo[3,4-b]pyridin-6-yl)cyclohexyl)carbamate], the inhibition at 10 µM turned out to be 97%.

Take `O=C1c2cc(-c3nnc(C(F)F)o3)ccc2CN1Cc1ccc(F)cc1` [Example 151, 6-(5-(difluoromethyl)-1,3,4-oxadiazol-2-yl)-2-(4-fluorobenzyl)isoindolin-1-one]: the inhibition at 10 µM was determined as 98%.

Take `CC(=O)N[C@@H]1CCCC[C@H]1N1Cc2c(F)cc(-c3nnc(C(F)F)o3)cc2C1=O` [Example 152, N-((1R,2R)-2-(6-(5-(difluoromethyl)-1,3,4-oxadiazol-2-yl)-4-fluoro-1-oxo-1,3-dihydro-2H-isoindol-2-yl)cyclohexyl)acetamide]: the inhibition at 10 µM came to 99%.

As for `COC(=O)N[C@@H]1CCCC[C@H]1N1Cc2c(F)cc(-c3nnc(C(F)F)o3)cc2C1=O` [Example 153, methyl ((1R,2R)-2-(6-(5-(difluoromethyl)-1,3,4-oxadiazol-2-yl)-4-fluoro-1-oxo-1,3-dihydro-2H-isoindol-2-yl)cyclohexyl)carbamate], the inhibition at 10 µM was determined as 100%.

As to `CNC(=O)O[C@@H]1CCCC[C@H]1N1Cc2ccc(-c3nnc(C(F)F)o3)cc2C1=O` [Example 154, (1R,2R)-2-(6-(5-(difluoromethyl)-1,3,4-oxadiazol-2-yl)-1-oxo-1,3-dihydro-2H-isoindol-2-yl)cyclohexyl methylcarbamate], the inhibition at 10 µM is 98%.

`O=C1c2cc(-c3nnc(C(F)F)o3)cc(F)c2CN1Cc1ccccn1` [Example 155, 6-(5-(difluoromethyl)-1,3,4-oxadiazol-2-yl)-4-fluoro-2-(pyridin-2-ylmethyl)isoindolin-1-one]: the inhibition at 10 µM is 95%.

As for `COc1ccccc1-c1ccccc1N1Cc2ccc(-c3nnc(C(F)F)o3)cc2C1=O` [Example 156, 6-(5-(difluoromethyl)-1,3,4-oxadiazol-2-yl)-2-(2′-methoxybiphenyl-2-yl)isoindolin-1-one], the inhibition at 10 µM amounted to 100%.

For the compound `CN1CCN([C@@H]2CCCC[C@H]2N2Cc3ccc(-c4nnc(C(F)F)o4)cc3C2=O)C1=O` [Example 157, 6-(5-(difluoromethyl)-1,3,4-oxadiazol-2-yl)-2-((1R,2R)-2-(3-methyl-2-oxoimidazolidin-1-yl)cyclohexyl)isoindolin-1-one], the inhibition at 10 µM amounted to 98%.

Turning to `Cc1cc(-c2ccccc2N2Cc3ccc(-c4nnc(C(F)F)o4)cc3C2=O)n(C)n1` [Example 158, 6-(5-(difluoromethyl)-1,3,4-oxadiazol-2-yl)-2-(2-(1,3-dimethyl-1H-pyrazol-5-yl)phenyl)isoindolin-1-one], the inhibition at 10 µM was found to be 100%.

With `Cc1nn(C)cc1-c1ccccc1N1Cc2ccc(-c3nnc(C(F)F)o3)cc2C1=O` [Example 159, 6-(5-(difluoromethyl)-1,3,4-oxadiazol-2-yl)-2-(2-(1,3-dimethyl-1H-pyrazol-4-yl)phenyl)isoindolin-1-one], the inhibition at 10 µM turned out to be 100%.

As for `Cn1nccc1-c1ccccc1N1Cc2ccc(-c3nnc(C(F)F)o3)cc2C1=O` [Example 160, 6-(5-(difluoromethyl)-1,3,4-oxadiazol-2-yl)-2-(2-(1-methyl-1H-pyrazol-5-yl)phenyl)isoindolin-1-one], the inhibition at 10 µM worked out at 101%.

For the compound `COC(=O)N[C@@H]1CCCC[C@H]1N1Cc2ncc(-c3nnc(C(F)F)o3)cc2C1=O` [Example 161, methyl ((1R,2R)-2-(3-(5-(difluoromethyl)-1,3,4-oxadiazol-2-yl)-5-oxo-5,7-dihydro-6H-pyrrolo[3,4-b]pyridin-6-yl)cyclohexyl)carbamate], the inhibition at 10 µM amounted to 99%.

For the compound `CC(F)(F)C(=O)N[C@@H]1CCCC[C@H]1N1Cc2ncc(-c3nnc(C(F)F)o3)cc2C1=O` [Example 162, N-((1R,2R)-2-(3-(5-(difluoromethyl)-1,3,4-oxadiazol-2-yl)-5-oxo-5,7-dihydro-6H-pyrrolo[3,4-b]pyridin-6-yl)cyclohexyl)-2,2-difluoropropanamide], the inhibition at 10 µM is 97%.

`O=C(N[C@@H]1CCCC[C@H]1N1Cc2ncc(-c3nnc(C(F)F)o3)cc2C1=O)c1cccc(Cl)c1` [Example 163, 3-chloro-N-((1R,2R)-2-(3-(5-(difluoromethyl)-1,3,4-oxadiazol-2-yl)-5-oxo-5,7-dihydro-6H-pyrrolo[3,4-b]pyridin-6-yl)cyclohexyl)benzamide]: the inhibition at 10 µM turned out to be 98%.

As to `O=C(N[C@@H]1CCCC[C@H]1N1Cc2ncc(-c3nnc(C(F)F)o3)cc2C1=O)c1ccccn1` [Example 164, N-((1R,2R)-2-(3-(5-(difluoromethyl)-1,3,4-oxadiazol-2-yl)-5-oxo-5,7-dihydro-6H-pyrrolo[3,4-b]pyridin-6-yl)cyclohexyl)pyridine-2-carboxamide], the inhibition at 10 µM is 99%.
